Source: patent US20060252683A1, “Preparation of a peptide compound (SYRAPRO-2000) and its use for the activation of protein phosphatase-2A1 enzyme” (priority 2005, published 2006)

Assays:
protein phosphatase-1 = target: T1, protein phosphatase-1 (Oryctolagus cuniculus, UniProt P62139); assay: Protein phosphatase-1 assay; assay type: biochemical, rabbit; details: various concentrations
T1 construct: Protein phosphatase-1 was purified from rabbit skeletal muscle; from tissue; host or cells: rabbit skeletal muscle
T1 sequence (P62139 whole entry): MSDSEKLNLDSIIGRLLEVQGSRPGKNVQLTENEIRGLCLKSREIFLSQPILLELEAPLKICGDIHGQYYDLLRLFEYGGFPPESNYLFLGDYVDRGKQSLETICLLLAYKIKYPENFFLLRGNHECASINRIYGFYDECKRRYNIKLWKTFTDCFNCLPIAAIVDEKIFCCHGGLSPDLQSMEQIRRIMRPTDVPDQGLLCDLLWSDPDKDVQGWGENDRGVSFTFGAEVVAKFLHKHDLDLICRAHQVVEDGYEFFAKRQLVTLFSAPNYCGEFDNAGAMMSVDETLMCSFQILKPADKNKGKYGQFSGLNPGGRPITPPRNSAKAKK
Experimental: (§1) Protein phosphatase-1 (squares), protein phosphatase-2A1 (circles), protein phosphatase-2B (triangles) and protein phosphatase-2C (stars) were assayed in the presence of various concentrations of HIV-1 Vpr^71-96. 100 percent protein phosphatase activity is equivalent to 0.005 unit. Similar results were obtained in 3 independent experiments.
(§2) ^32P-labeled phosphorylase a was prepared by phosphorylation of phosphorylase b with phosphorylase kinase as described in (Cohen 1988). ^32P-labeled casein was prepared by phosphorylation of casein with protein kinase A as described in (Tung 1986). Protein phosphatase-1 was purified from rabbit skeletal muscle as described in (Cohen 1988). Protein phosphatase-1 inhibitor-2 was purified from rabbit skeletal muscle as described in (Yang 1981). Protein phosphatase-2A0 and protein phosphatase-2A1 from pig brain and from pig liver were purified as described in (Tung 1985). Protein phosphatase-2A0 and protein phosphatase-2A1 from pig adipose tissue were highly purified by successive chromatography of pig subcutaneous adipose tissue extracts on DEAE Sepharose, Poly-L-lysine Agarose, Sephacryl S-300 HR and thiophosphorylase-a-Sepharose-4B as described in (Tung 1985). Protein phosphatase-2B was purified from pig brain as described in (Tung 1986). […]

protein phosphatase-2B = assay: Protein phosphatase-2B assay; assay type: biochemical, pig; details: various concentrations
Experimental: as §1, §2

[1] = Cell viability (tryphan blue) and cell death of Jurkat cells; assay type: cell-based, human; details: human, Jurkat cells (CD4+ T cell line), 1000 nM, four hours of incubation, read-out: treated cells non viable (tryphan blue staining)
Experimental: (§3) Panel A, Jurkat cells (a CD^4+ T cell line) were grown in RPMI 1640 and 10% (v/v) fetal bovine serum. Cells (10^6 cells per ml) were treated (+) or not (−) with 1000 nM SYRAPRO-2000. Cell viability was then determined by counting the cells following tryphan blue staining after 1, 2 and 4 hours of incubation. Panel B, Following treatment with SYRAPRO-2000 for 1, 2 and 4 hours as indicated, Jurkat cells (10^6/ml) were washed with RPMI plus 2% fetal bovine serum and then deposited onto glass slides by cytospinning. Phase contrast images were then obtained with white light emission on a Zeiss Axioplan 2 imaging universal microscope (Thornwood, N.Y.). […]
(§4) Jurkat cells are grown in RPMI 1680 medium supplemented with 5% (v/v) fetal bovine serum and antibiotics and treated or not with 1 μM of SYRAPRO-2000 for 1 hour, 2 hours and 4 hours. Following treatment with SYRAPRO-2000, cell viability are then determined by counting the cells following tryphan blue staining. […]
(§5) Following treatment of cells with SYRAPRO-2000, cells were examined by phase contrast microscopy or by fluorescent microscopy following staining with FITC labeled annexin V (apoptotic cell death) and propidium iodide (oncolytic cell death). Cells were analyzed on a Zeiss Axioplan 2 imaging universal microscope (Thornwood, N.Y.). […] Green (FITC labeled annexin V) and red (propidium iodide) fluorescence images were obtained. […]

Jurkat cells = assay: as above; assay type: cell-based, human; details: 1000 nM
Experimental: as §3, §4, §5

CC[C@H](C)[C@H](NC(=O)[C@H](CCCNC(=N)N)NC(=O)[C@H](CO)NC(=O)[C@H](Cc1c[nH]cn1)NC(=O)[C@H](CCCNC(=N)N)NC(=O)[C@H](CS)NC(=O)CNC(=O)[C@@H](NC(=O)[C@H](CCCNC(=N)N)NC(=O)[C@H](Cc1ccccc1)NC(=O)[C@@H](N)Cc1c[nH]cn1)[C@@H](C)CC)C(=O)NCC(=O)N[C@H](C(=O)N[C@H](C(=O)N[C@@H](CCCNC(=N)N)C(=O)N[C@@H](CCC(N)=O)C(=O)N[C@@H](CCCNC(=N)N)C(=O)N[C@@H](CCCNC(=N)N)C(=O)N[C@@H](C)C(=O)N[C@@H](CCCNC(=N)N)C(=O)N[C@@H](CC(N)=O)C(=O)NCC(=O)N[C@@H](C)C(=O)N[C@@H](CO)C(=O)N[C@@H](CCCNC(=N)N)C(=O)N[C@@H](CO)C(=O)O)[C@@H](C)O)C(C)C [SYRAPRO-2000]
effect on activity of protein phosphatase-1 (protein phosphatase-1): negligible effect
effect on activity of protein phosphatase-2B (protein phosphatase-2B): negligible effect
cytotoxicity at 4 h, 1 µM [1]: ~60%
mode of cell death (phase contrast microscopy) (Jurkat cells): oncolysis
